Experiments:
Rattus norvegicus [1] = test: Biodistribution in corticosterone pretreated Wistar rat testis at 20 MBq, iv after 60 mins; format: ADME, organism-based; conditions: in vivo, 1 h
Cortex [2] = test: Biodistribution in Wistar rat cortex at 20 MBq, iv after 5 mins; format: ADME, organism-based; conditions: in vivo
Rattus norvegicus [3] = test: Biodistribution in Wistar rat rest of brain at 20 MBq, iv after 5 mins; format: ADME, organism-based; conditions: in vivo
Heart [4] = test: Biodistribution in Wistar rat heart at 20 MBq, iv after 60 mins; format: ADME, organism-based; conditions: in vivo, 1 h
Femur = test: Biodistribution in Wistar rat femur at 20 MBq, iv after 5 mins; format: ADME, organism-based; conditions: in vivo
Muscle tissue [5] = test: Biodistribution in Wistar rat muscle at 20 MBq, iv after 5 mins; format: ADME, organism-based; conditions: in vivo
Spleen [6] = test: Biodistribution in corticosterone pretreated Wistar rat spleen at 20 MBq, iv after 5 mins; format: ADME, organism-based; conditions: in vivo
Cerebellum [7] = test: Biodistribution in corticosterone pretreated Wistar rat cerebellum at 20 MBq, iv after 5 mins; format: ADME, organism-based; conditions: in vivo
Pancreas [8] = test: Biodistribution in corticosterone pretreated Wistar rat pancreas at 20 MBq, iv after 5 mins; format: ADME, organism-based; conditions: in vivo
Hippocampus [9] = test: Biodistribution in corticosterone pretreated Wistar rat hippocampus at 20 MBq, iv after 5 mins; format: ADME, organism-based; conditions: in vivo
Kidney [10] = test: Biodistribution in Wistar rat kidney at 20 MBq, iv after 60 mins; format: ADME, organism-based; conditions: in vivo, 1 h
Spleen [11] = test: Biodistribution in Wistar rat spleen at 20 MBq, iv after 60 mins; format: ADME, organism-based; conditions: in vivo, 1 h
Hippocampus [12] = test: Biodistribution in corticosterone pretreated Wistar rat hippocampus at 20 MBq, iv after 60 mins; format: ADME, organism-based; conditions: in vivo, 1 h
Rattus norvegicus [13] = test: Biodistribution in Wistar rat fat at 20 MBq, iv after 5 mins; format: ADME, organism-based, Adipose tissue; conditions: in vivo
Adrenal [14] = test: Biodistribution in corticosterone pretreated Wistar rat adrenal at 20 MBq, iv after 60 mins; format: ADME, organism-based, Adrenal tissue; conditions: in vivo, 1 h
Kidney [15] = test: Biodistribution in Wistar rat kidney at 20 MBq, iv after 5 mins; format: ADME, organism-based; conditions: in vivo
Cerebellum [16] = test: Biodistribution in Wistar rat cerebellum at 20 MBq, iv after 5 mins; format: ADME, organism-based; conditions: in vivo
Hippocampus [17] = test: Biodistribution in Wistar rat hippocampus at 20 MBq, iv after 5 mins; format: ADME, organism-based; conditions: in vivo
Cerebellum [18] = test: Biodistribution in Wistar rat cerebellum at 20 MBq, iv after 60 mins; format: ADME, organism-based; conditions: in vivo, 1 h
Blood = test: Biodistribution in Wistar rat blood at 20 MBq, iv after 60 mins; format: ADME, organism-based; conditions: in vivo, 1 h
Heart [19] = test: Biodistribution in corticosterone pretreated Wistar rat heart at 20 MBq, iv after 5 mins; format: ADME, organism-based; conditions: in vivo
Cerebellum [20] = test: Biodistribution in corticosterone pretreated Wistar rat cerebellum at 20 MBq, iv after 60 mins; format: ADME, organism-based; conditions: in vivo, 1 h
Pituitary gland = test: Biodistribution in Wistar rat pituitary at 20 MBq, iv after 60 mins; format: ADME, organism-based; conditions: in vivo, 1 h
Cortex [21] = test: Biodistribution in corticosterone pretreated Wistar rat cortex at 20 MBq, iv after 5 mins; format: ADME, organism-based; conditions: in vivo
Harderian gland [22] = test: Biodistribution in Wistar rat harderian gland at 20 MBq, iv after 60 mins; format: ADME, organism-based; conditions: in vivo, 1 h
Pancreas [23] = test: Biodistribution in corticosterone pretreated Wistar rat pancreas at 20 MBq, iv after60 mins; format: ADME, organism-based; conditions: in vivo, 1 h
Thymus = test: Biodistribution in corticosterone pretreated Wistar rat thymus at 20 MBq, iv after 5 mins; format: ADME, organism-based; conditions: in vivo
Muscle tissue [24] = test: Biodistribution in corticosterone pretreated Wistar rat muscle at 20 MBq, iv after 60 mins; format: ADME, organism-based; conditions: in vivo, 1 h
Rattus norvegicus [25] = test: Biodistribution in Wistar rat brown fat at 20 MBq, iv after 60 mins; format: ADME, organism-based, Brown adipose tissue; conditions: in vivo, 1 h
Cortex [26] = test: Biodistribution in corticosterone pretreated Wistar rat cortex at 20 MBq, iv after 60 mins; format: ADME, organism-based; conditions: in vivo, 1 h
Pancreas [27] = test: Biodistribution in Wistar rat pancreas at 20 MBq, iv after 60 mins; format: ADME, organism-based; conditions: in vivo, 1 h
Harderian gland [28] = test: Biodistribution in corticosterone pretreated Wistar rat harderian gland at 20 MBq, iv after 60 mins; format: ADME, organism-based; conditions: in vivo, 1 h
Rattus norvegicus [29] = test: Biodistribution in Wistar rat brown fat at 20 MBq, iv after 5 mins; format: ADME, organism-based, Brown adipose tissue; conditions: in vivo
Lung [30] = test: Biodistribution in corticosterone pretreated Wistar rat lung at 20 MBq, iv after 60 mins; format: ADME, organism-based; conditions: in vivo, 1 h
Harderian gland [31] = test: Biodistribution in corticosterone pretreated Wistar rat harderian gland at 20 MBq, iv after 5 mins; format: ADME, organism-based; conditions: in vivo
Adrenal [32] = test: Biodistribution in Wistar rat adrenal at 20 MBq, iv after 60 mins; format: ADME, organism-based, Adrenal tissue; conditions: in vivo, 1 h
Hippocampus [33] = test: Biodistribution in Wistar rat hippocampus at 20 MBq, iv after 60 mins; format: ADME, organism-based; conditions: in vivo, 1 h
Rattus norvegicus [34] = test: Biodistribution in corticosterone pretreated Wistar rat fat at 20 MBq, iv after 60 mins; format: ADME, organism-based, Adipose tissue; conditions: in vivo, 1 h
Lung [35] = test: Biodistribution in corticosterone pretreated Wistar rat lung at 20 MBq, iv after 5 mins; format: ADME, organism-based; conditions: in vivo
Adrenal [36] = test: Biodistribution in Wistar rat adrenal at 20 MBq, iv after 5 mins; format: ADME, organism-based, Adrenal tissue; conditions: in vivo

Question: What does the source list for `C=CCC1Oc2cccc(O[11CH3])c2-c2ccc3c(c21)C(C)=CC(C)(C)N3` (stereo not given)?
Answer: Drug uptake (Rattus norvegicus [1]): 0.5 % ID/g; Drug uptake (Cortex [2]): 1.67 % ID/g; Drug uptake (Rattus norvegicus [3]): 1.52 % ID/g; Drug uptake (Heart [4]): 0.75 % ID/g; Drug uptake (Femur): 0.9 % ID/g; Drug uptake (Muscle tissue [5]): 0.94 % ID/g; Drug uptake (Spleen [6]): 1.21 % ID/g; Drug uptake (Cerebellum [7]): 1.46 % ID/g; Drug uptake (Pancreas [8]): 2.81 % ID/g; Drug uptake (Hippocampus [9]): 1.35 % ID/g; Drug uptake (Kidney [10]): 1.19 % ID/g; Drug uptake (Spleen [11]): 1.06 % ID/g; Drug uptake (Hippocampus [12]): 0.68 % ID/g; Drug uptake (Rattus norvegicus [13]): 1.19 % ID/g; Drug uptake (Adrenal [14]): 3.8 % ID/g; Drug uptake (Kidney [15]): 1.72 % ID/g; Drug uptake (Cerebellum [16]): 1.39 % ID/g; Drug uptake (Hippocampus [17]): 1.3 % ID/g; Drug uptake (Cerebellum [18]): 0.53 % ID/g; Drug uptake (Blood): 0.6 % ID/g; Drug uptake (Heart [19]): 1.91 % ID/g; Drug uptake (Cerebellum [20]): 0.64 % ID/g; Drug uptake (Pituitary gland): 1.77 % ID/g; Drug uptake (Cortex [21]): 1.55 % ID/g; Drug uptake (Harderian gland [22]): 3.35 % ID/g; Drug uptake (Pancreas [23]): 1.43 % ID/g; Drug uptake (Thymus): 1.46 % ID/g; Drug uptake (Muscle tissue [24]): 0.52 % ID/g; Drug uptake (Rattus norvegicus [25]): 8.54 % ID/g; Drug uptake (Cortex [26]): 0.74 % ID/g; Drug uptake (Pancreas [27]): 1.99 % ID/g; Drug uptake (Harderian gland [28]): 2.87 % ID/g; Drug uptake (Rattus norvegicus [29]): 5.22 % ID/g; Drug uptake (Lung [30]): 1.03 % ID/g; Drug uptake (Harderian gland [31]): 1.65 % ID/g; Drug uptake (Adrenal [32]): 4.4 % ID/g; Drug uptake (Hippocampus [33]): 0.61 % ID/g; Drug uptake (Rattus norvegicus [34]): 2.43 % ID/g; Drug uptake (Lung [35]): 1.44 % ID/g; Drug uptake (Adrenal [36]): 7.63 % ID/g
